Here are results for 37 molecules from US20250381110A1, “SKIN CARE COMPOSITION AND METHOD OF USING THE SAME” (THE PROCTER & GAMBLE COMPANY, priority 2024, published 2025).

The test system of this assay is p62-dependent mitophagy. The assay can be described thus: Luciferase-p62 assay (Fluc-p62 clearance) in mouse embryonic fibroblasts. Type of assay: cell-based. A digest of the protocol:
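MEFs with doxycycline-inducible Fluc-p62; after induction, doxycycline removed and cells treated 48 h with compounds at 10 μM. Fluc-p62 clearance, taken as mitophagy, read by ONE-Glo+Tox luciferase with viability. Vehicle (DMSO) as negative control; activity also expressed relative to rapamycin.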

Setting [1] is: Luciferase-p62 assay, mouse embryonic fibroblasts (MEFs), compounds at 10 μM.
[2] abbreviates: percentage of Luciferase-p62 clearance relative to baseline (mean luminescence in the absence of doxycycline induction), MEFs, 10 μM.
Setting [3] is: percentage of activity relative to rapamycin tested in the same experiment at the same concentration, MEFs, 10 μM.

Where a name gives a salt, the structure may show the parent alone. Read-outs that look alike come from different tables or passages of the source.

`Oc1c(Cl)cc(Cl)c2cccnc12` [Chloroxine]: under setting [1], the “Mean Luminescence” value worked out at 272.45. Also, the “% Activity over baseline” value under setting [2] is 83.16%. For the same molecule, the “% Activity relative to Rapamycin” value under setting [3] worked out at 149.84%.

As to `O=C(O)c1cc(O)c(O)c(O)c1` [Gallic acid], the “Mean Luminescence” value under setting [1] came out at 898.71. Also, the “% Activity over baseline” value under setting [2] amounted to 44.46%. Besides, the “% Activity relative to Rapamycin” value under setting [3] worked out at 80.10%.

For the molecule `CO/N=C(\C(=O)N[C@@H]1C(=O)N2C(C(=O)O)=C(Cn3ccc(=N)n3CCO)CS[C@H]12)c1csc(N)n1.O=S(=O)(O)O` [Cefoselis Sulfate], under setting [1], the “Mean Luminescence” value is 937.12. Moreover, the “% Activity over baseline” value under setting [2] amounted to 42.09%. Further, under setting [3], the “% Activity relative to Rapamycin” value is 75.83%.

Consider `COC(=O)c1c2c(c3ccccc3c1O)OC(C)(C)C=C2` [Mollugin], for which, under setting [1], the “Mean Luminescence” value was found to be 709.65. Moreover, under setting [2], the “% Activity over baseline” value is 56.14%. Under setting [3], the “% Activity relative to Rapamycin” value turned out to be 101.16%.

`O=c1cc(-c2ccccc2)oc2c1ccc1ccccc12` [α-Naphthoflavone]: under setting [1], the “Mean Luminescence” value was found to be 781.48. Besides, the “% Activity over baseline” value under setting [2] came to 51.70%. The “% Activity relative to Rapamycin” value under setting [3] was determined as 93.16%.

In the case of `CNC[C@H](O)[C@@H](O)[C@H](O)[C@H](O)CO.CNC[C@H](O)[C@@H](O)[C@H](O)[C@H](O)CO.C[C@@H](O[C@H]1OCCN(Cc2nn(P(=O)(O)O)c(=O)[nH]2)[C@H]1c1ccc(F)cc1)c1cc(C(F)(F)F)cc(C(F)(F)F)c1` [Fosaprepitant dimeglumine salt], the “Mean Luminescence” value under setting [1] was determined as 756.54. For the same molecule, the “% Activity over baseline” value under setting [2] was 53.24%. Besides, the “% Activity relative to Rapamycin” value under setting [3] came to 95.93%.

Regarding `C=C1CC[C@@H]2[C@](C)(CO)[C@H](O)CC[C@@]2(C)[C@@H]1C/C=C1/C(=O)OC[C@H]1O` [Andrographolide], under setting [1], the “Mean Luminescence” value worked out at 818.97. Under setting [2], the “% Activity over baseline” value was found to be 49.39%. Further, under setting [3], the “% Activity relative to Rapamycin” value is on record as 88.98%.

In the case of `COc1ccc(C=O)cc1OC` [Veratraldehyde], the “Mean Luminescence” value under setting [1] is 887.33. In addition, the “% Activity over baseline” value under setting [2] was 45.16%. Further, the “% Activity relative to Rapamycin” value under setting [3] was found to be 81.37%.

`COc1cc(C=O)ccc1OC(C)=O` [Acetylvanillin]: the “Mean Luminescence” value under setting [1] was found to be 979.34. Moreover, the “% Activity over baseline” value under setting [2] was 39.48%. The “% Activity relative to Rapamycin” value under setting [3] turned out to be 71.13%.

As to `O=C1C[C@@H](c2ccc(O)c(O)c2)Oc2cc(O)cc(O)c21` [Eriodictyol], under setting [1], the “Mean Luminescence” value is given as 852.50. Besides, the “% Activity over baseline” value under setting [2] was 47.31%. Moreover, the “% Activity relative to Rapamycin” value under setting [3] worked out at 85.25%.

For `O=c1ccn2c(n1)O[C@H]1[C@H](O)[C@@H](CO)O[C@H]12` [2,2′-Cyclouridine], the “Mean Luminescence” value under setting [1] worked out at 935.30. Besides, the “% Activity over baseline” value under setting [2] is on record as 42.20%. In addition, under setting [3], the “% Activity relative to Rapamycin” value is 76.03%.

As to `COc1cc(C)c(/C=C/C(C)=C/C=C/C(C)=C/C(=O)O)c(C)c1C` [Acitretin], the “Mean Luminescence” value under setting [1] is given as 883.02. In addition, under setting [2], the “% Activity over baseline” value is 45.43%. In addition, the “% Activity relative to Rapamycin” value under setting [3] was determined as 81.85%.

For the molecule `C=CCCC(=O)O` [4-Pentenoic acid], the “Mean Luminescence” value under setting [1] is on record as 936.28. Under setting [2], the “% Activity over baseline” value is 42.14%. For the same molecule, under setting [3], the “% Activity relative to Rapamycin” value amounted to 75.92%.

With `C[C@@H]1C(=O)O[C@H]2C[C@@]34[C@H]5C[C@@H](C(C)(C)C)[C@]36[C@@H](OC(=O)[C@@H]6O)O[C@@]4(C(=O)O5)[C@]21O` [Ginkgolide A], the “Mean Luminescence” value under setting [1] is given as 977.84. Under setting [2], the “% Activity over baseline” value is given as 39.57%. Besides, under setting [3], the “% Activity relative to Rapamycin” value was 71.29%.

With `CN(Cc1ccc(C(C)(C)C)cc1)Cc1cccc2ccccc12` [Butenafine HCl], the “Mean Luminescence” value under setting [1] is 582.45. In addition, the “% Activity over baseline” value under setting [2] turned out to be 64.00%. Also, the “% Activity relative to Rapamycin” value under setting [3] was found to be 115.32%.

On to `CCOC(=O)O[C@]1(C(=O)OCCl)CC[C@H]2[C@@H]3CCC4=CC(=O)C=C[C@]4(C)[C@H]3[C@@H](O)C[C@@]21C` [Loteprednol etabonate], for which the “Mean Luminescence” value under setting [1] was 214.82. In addition, the “% Activity over baseline” value under setting [2] was 86.72%. In addition, the “% Activity relative to Rapamycin” value under setting [3] stood at 156.26%.

For the molecule `CC(=O)OCC(=O)[C@@]1(O)[C@H](C)C[C@H]2[C@@H]3CCC4=CC(=O)C=C[C@]4(C)[C@@]3(F)[C@@H](O)C[C@@]21C` [Dexamethasone acetate], under setting [1], the “Mean Luminescence” value was determined as 681.22. Besides, the “% Activity over baseline” value under setting [2] came to 57.90%. In addition, the “% Activity relative to Rapamycin” value under setting [3] was 104.32%.

Turning to `Clc1ccc(COC(Cn2ccnc2)c2ccc(Cl)cc2Cl)c(Cl)c1` (stereo not drawn) [Miconazole Nitrate], under setting [1], the “Mean Luminescence” value was 704.35. For the same molecule, the “% Activity over baseline” value under setting [2] worked out at 56.47%. The “% Activity relative to Rapamycin” value under setting [3] came to 101.75%.

As for `CC(C)C(=O)C(=O)O` [Ketoisovaleric acid], the “Mean Luminescence” value under setting [1] is 921.08. Also, under setting [2], the “% Activity over baseline” value worked out at 43.08%. Further, the “% Activity relative to Rapamycin” value under setting [3] was determined as 77.61%.

As for `O=C(O[C@@H]1O[C@@H]2COC(=O)c3cc(O)c(O)c(O)c3-c3c(cc(O)c(O)c3O)C(=O)O[C@H]([C@H]1O)[C@@H]2O)c1cc(O)c(O)c(O)c1` [Corilagin], the “Mean Luminescence” value under setting [1] stood at 985.42. Besides, the “% Activity over baseline” value under setting [2] was found to be 39.10%. For the same molecule, the “% Activity relative to Rapamycin” value under setting [3] is reported as 70.45%.

Regarding `COC(=O)[C@H]1[C@H]2C[C@@H]3c4[nH]c5cc(OC)ccc5c4CCN3C[C@H]2C[C@@H](OC(=O)c2cc(OC)c(OC)c(OC)c2)[C@@H]1OC` [Reserpine hydrochloride], the “Mean Luminescence” value under setting [1] is on record as 810.13. For the same molecule, under setting [2], the “% Activity over baseline” value turned out to be 49.93%. Under setting [3], the “% Activity relative to Rapamycin” value is on record as 89.97%.

`C[C@H]1[C@H](C)CC[C@]2(C(=O)O)CC[C@]3(C)C(=CC[C@@H]4[C@@]5(C)CC[C@H](O)C(C)(C)[C@@H]5CC[C@]43C)[C@H]12` [Ursolic acid]: under setting [1], the “Mean Luminescence” value is 905.10. Also, the “% Activity over baseline” value under setting [2] came out at 44.06%. Also, the “% Activity relative to Rapamycin” value under setting [3] was found to be 79.39%.

As for `O=C1CC[C@H](C(=O)O)N1` [D-Pyroglutamic acid], under setting [1], the “Mean Luminescence” value came to 938.93. The “% Activity over baseline” value under setting [2] worked out at 41.97%. The “% Activity relative to Rapamycin” value under setting [3] came out at 75.63%.

`COc1cc(CNC(=O)CCCC/C=C/C(C)C)ccc1O` [Capsaicin]: the “Mean Luminescence” value under setting [1] is on record as 832.02. Moreover, the “% Activity over baseline” value under setting [2] is 48.58%. Moreover, under setting [3], the “% Activity relative to Rapamycin” value stood at 87.53%.

As to `C#C[C@]1(O)CC[C@H]2[C@@H]3CCC4=CC(=O)CC[C@]4(C)[C@H]3CC[C@@]21C` [Ethisterone], under setting [1], the “Mean Luminescence” value is reported as 996.32. In addition, the “% Activity over baseline” value under setting [2] turned out to be 38.43%. Further, the “% Activity relative to Rapamycin” value under setting [3] was 69.24%.

For `Cl.Cl.NCCCCN` [1,4-Diaminobutane dihydrochloride], the “Mean Luminescence” value was 902.42. For the same molecule, where the note is “10 µM”, the “% Activity over baseline” value is 44.23% and the “% Activity relative to Rapamycin” value is reported as 79.69%.

Take `Nc1nc(N)nc(N)n1` [Melamine]: under setting [1], the “Mean Luminescence” value is given as 960.76. Also, the “% Activity over baseline” value under setting [2] amounted to 40.62%. Under setting [3], the “% Activity relative to Rapamycin” value is recorded as 73.19%.

On to `COC(=O)[C@H]1[C@H]2C[C@@H]3c4[nH]c5cc(OC)ccc5c4CCN3C[C@H]2C[C@@H](OC(=O)c2cc(OC)c(OC)c(OC)c2)[C@@H]1OC` [Reserpine], for which, under setting [1], the “Mean Luminescence” value amounted to 915.14. For the same molecule, under setting [2], the “% Activity over baseline” value came to 43.44%. Further, the “% Activity relative to Rapamycin” value under setting [3] came to 78.27%.

On to `CN1[C@@H]2C[C@@H](OC(=O)[C@H](CO)c3ccccc3)C[C@H]1[C@@H]1O[C@@H]12` [Scopolamine hydrobromide], for which the “Mean Luminescence” value under setting [1] worked out at 937.62. For the same molecule, under setting [2], the “% Activity over baseline” value is 42.05%. Besides, the “% Activity relative to Rapamycin” value under setting [3] was found to be 75.77%.

As to `CC(C)(C)NCC(O)c1cc(Cl)c(N)c(Cl)c1` (stereo not drawn) [Clenbuterol (hydrochloride)], the “Mean Luminescence” value under setting [1] was found to be 994.53. In addition, the “% Activity over baseline” value under setting [2] is recorded as 38.54%. The “% Activity relative to Rapamycin” value under setting [3] turned out to be 69.44%.

`CN[C@@H]1[C@H](O)[C@H](NC)[C@H]2O[C@@]3(O)C(=O)C[C@@H](C)O[C@H]3O[C@@H]2[C@H]1O` [Spectinomycin dihydrochloride]: the “Mean Luminescence” value under setting [1] came out at 953.21. In addition, the “% Activity over baseline” value under setting [2] is on record as 41.09%. Besides, the “% Activity relative to Rapamycin” value under setting [3] was determined as 74.04%.

Regarding `C[C@]12CC[C@@H]3c4ccc(O)cc4CC[C@H]3[C@@H]1C[C@@H](O)[C@@H]2O` [Estriol], the “Mean Luminescence” value under setting [1] worked out at 784.74. The “% Activity over baseline” value under setting [2] turned out to be 51.50%. Also, the “% Activity relative to Rapamycin” value under setting [3] was 92.80%.

Picrotoxin: under setting [1], the “Mean Luminescence” value came to 868.69. In addition, under setting [2], the “% Activity over baseline” value is on record as 46.31%. The “% Activity relative to Rapamycin” value under setting [3] is recorded as 83.45%.

For Bacitracin Zinc, the “Mean Luminescence” value under setting [1] was determined as 919.94. For the same molecule, the “% Activity over baseline” value under setting [2] was 43.15%. For the same molecule, the “% Activity relative to Rapamycin” value under setting [3] is 77.74%.

Take Schisantherin A: the “Mean Luminescence” value under setting [1] is 875.42. The “% Activity over baseline” value under setting [2] stood at 45.90%. Also, the “% Activity relative to Rapamycin” value under setting [3] is given as 82.70%.

On to `CCC[C@@H]1C[C@@H](C(=O)N[C@@H]([C@H]2O[C@H](SC)[C@H](OP(=O)(O)O)[C@@H](O)[C@H]2O)[C@H](C)Cl)N(C)C1` [Clindamycin Phosphate], for which, under setting [1], the “Mean Luminescence” value stood at 526.49. Also, the “% Activity over baseline” value under setting [2] was found to be 67.46%. Also, the “% Activity relative to Rapamycin” value under setting [3] was determined as 121.55%.

On to `CCOC(=O)c1c(C)n(C)c2ccc(O)cc12` [Mecarbinate], for which the “Mean Luminescence” value under setting [1] turned out to be 799.96. Also, the “% Activity over baseline” value under setting [2] is reported as 50.56%. The “% Activity relative to Rapamycin” value under setting [3] was 91.10%.
